The values that follow come from article PMC3412939 (Biochimica et biophysica acta, 2012).

A short description of data set [1]: Blue shift of tryptophan emission spectrum on membrane binding. It is filed as physicochemical. The note with it: PC/PG SUV, relative to spectrum without lipid; excitation 280 nm; mean ± SE.
Data set [2] can be described thus: Acrylamide quenching of tryptophan fluorescence. It is filed as physicochemical. The note with it: 100 μM PC/PG (7:3) SUV, cholesterol-free.

wRVIRLVRVFRIFKLSRH [W-S4]: in data set [1], the “Blue shift of tryptophan emission at saturation” value stood at 13 ± 2 nm. In addition, the “Ratio of quenching constants KSV(lipid)/KSV(no lipid)” value in data set [2] was 0.41 ± 0.03.
